For the first assay, the target named is Factor IXa (Homo sapiens (Human), UniProt P00740). The experiment in a line: Determination of inhibitory activity against Factor IXa (cleavage of fluorescent peptide CH3SO2-D-CHG-Gly-Arg-AFC). It is filed as biochemical. The following applies: read-out: FIXa IC50. The procedure: Determination of Inhibitory Activity Against Factor IXa
Sequence of Factor IXa (P00740 227-461): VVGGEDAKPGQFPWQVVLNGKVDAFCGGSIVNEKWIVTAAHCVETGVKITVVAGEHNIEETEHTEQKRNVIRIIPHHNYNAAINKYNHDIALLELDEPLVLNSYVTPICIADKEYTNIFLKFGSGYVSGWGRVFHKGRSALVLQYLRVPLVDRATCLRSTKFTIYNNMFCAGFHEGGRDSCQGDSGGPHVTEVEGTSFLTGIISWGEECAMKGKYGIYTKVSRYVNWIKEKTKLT
Sequence of Factor IXa (P00740 47-191 partner): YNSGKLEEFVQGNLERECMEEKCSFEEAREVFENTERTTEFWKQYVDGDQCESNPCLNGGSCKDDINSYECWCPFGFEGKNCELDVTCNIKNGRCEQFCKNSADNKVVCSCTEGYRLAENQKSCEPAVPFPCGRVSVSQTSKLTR
Formation of a clot to stem bleeding at a site of blood vessel injury involves the coordinated activity of a group of plasma proteins that initiate and propagate fibrin formation and subsequently protect fibrin from premature degradation. Factor IX is a key component of the plasma system that forms a fibrin clot at a site of vascular injury. The activity of Factor IXa is measured by monitoring the cleavage of the fluorescent peptide, CH3SO2-D-CHG-Gly-Arg-AFC.AcOH (“CHG” is cyclohexyl-glycine and “AFC” is trifluoro aminomethyl coumarin). Factor IXa cleaves the amide bond between Arg and AFC, thereby releasing the AFC fluorophore. The free AFC can be detected with a fluorescence detector at an excitation wavelength of 405 nm and emission wavelength of 510 nm.
On to `Cc1ncn(-c2cc(Cl)c(C(=O)NCC(c3ccc(=O)[nH]c3)c3nc4ccc(Cl)cc4[nH]3)c(Cl)c2)n1` (racemic) [Example 39, 2,6-Dichloro-N-(2-(6-chloro-1H-benzo[d]imidazol-2-yl)-2-(6-oxo-1,6-dihydropyridin-3-yl)ethyl)-4-(3-methyl-1H-1,2,4-triazol-1-yl)benzamide 2,2,2-trifluoroacetate], for which the IC50 (as a rule, the concentration that gives 50% inhibition) is 2.4 nM.

With `COc1ccc(C(CNC(=O)c2c(Cl)cc(-n3cnc(C)n3)cc2Cl)c2nc3ccc(Cl)cc3[nH]2)cn1` (racemic) [Example 40, (±)-2,6-Dichloro-N-(2-(6-chloro-1H-benzo[d]imidazol-2-yl)-2-(6-methoxypyridin-3-yl)ethyl)-4-(3-methyl-1H-1,2,4-triazol-1-yl)benzamide], the half-maximal inhibitory concentration (IC50) was 32.7 nM.

Consider `COc1cc2nc(C(CNC(=O)c3c(Cl)cc(-n4cnc(C)n4)cc3Cl)n3cc(CO)nn3)[nH]c2cc1Cl` (racemic) [Example 71, (±)-2,6-Dichloro-N-(2-(6-chloro-5-methoxy-1H-benzo[d]imidazol-2-yl)-2-(4-(hydroxymethyl)-1H-1,2,3-triazol-1-yl)ethyl)-4-(3-methyl-1H-1,2,4-triazol-1-yl)benzamide], for which the IC50 came out at 20.5 nM. On the same count and under the same terms, in the case of `Cc1cc2nc(C(CNC(=O)c3c(Cl)cc(-n4cc(CCO)nn4)cc3Cl)c3ccccc3)[nH]c2cc1C` (single isomer, unassigned) [Example 1] it was 10.4 nM; in that of `Cc1cc2nc(C(C)(CNC(=O)c3ccc(-n4cnnc4)cc3Cl)c3ccccc3)[nH]c2cc1C` (single isomer, unassigned) [Example 69], 55.2 nM.

Turning to `Cc1cc2nc([C@@H](CNC(=O)c3c(Cl)cc(-n4cnnn4)cc3Cl)c3ccccc3)[nH]c2cc1C` [Example 2, (R)-2,6-dichloro-N-(2-(5,6-dimethyl-1H-benzo[d]imidazol-2-yl)-2-phenylethyl)-4-(1H-tetrazol-1-yl)benzamide], the IC50 stood at 26.4 nM.

Regarding `Cc1cc2nc(C(CNC(=O)c3c(Cl)cc(-c4ccnc(C(=O)O)c4)cc3Cl)c3ccccc3)[nH]c2cc1C` (centres unmarked) [Example 16, 4-(3,5-Dichloro-4-((2-(5,6-dimethyl-1H-benzo[d]imidazol-2-yl)-2-phenylethyl)carbamoyl)phenyl)picolinic acid], the IC50 amounted to 73.6 nM. Same read-out and setting: in the case of `Cc1cc2nc([C@@H](CNC(=O)c3ccc(-n4cnnc4)cc3Cl)c3ccccc3)[nH]c2cc1C` [Example 37, (R)-2-Chloro-N-(2-(5,6-dimethyl-1H-benzo[d]imidazol-2-yl)-2-phenylethyl)-4-(4H-1,2,4-triazol-4-yl)benzamide] it was 15.7 nM. Still for that read-out and setting: in the case of `Cc1cc2nc([C@@H](CNC(=O)c3c(Cl)cc(-n4cnnc4)cc3Cl)c3cncc(F)c3)[nH]c2cc1C` [Example 38, (R)-2,6-Dichloro-N-(2-(5,6-dimethyl-1H-benzo[d]imidazol-2-yl)-2-(5-fluoropyridin-3-yl)ethyl)-4-(4H-1,2,4-triazol-4-yl)benzamide] it was 14.8 nM.

Take `Cc1ncn(-c2cc(Cl)c(C(=O)NC[C@@H](c3ccc(C(=O)O)cc3)c3nc4c(C)cc(Cl)cc4[nH]3)c(Cl)c2)n1` [Example 41, (R)-4-(1-(6-Chloro-4-methyl-1H-benzo[d]imidazol-2-yl)-2-(2,6-dichloro-4-(3-methyl-1H-1,2,4-triazol-1-yl)benzamido)ethyl)benzoic acid]: the IC50 was found to be 18.6 nM. On the same count and under the same terms, as for `CCOC(=O)c1ccc([C@H](CNC(=O)c2c(Cl)cc(-n3cnc(C)n3)cc2Cl)c2nc3c(C)cc(Cl)cc3[nH]2)cc1` [Example 42, (R)-Ethyl 4-(1-(6-chloro-4-methyl-1H-benzo[d]imidazol-2-yl)-2-(2,6-dichloro-4-(3-methyl-1H-1,2,4-triazol-1-yl)benzamido)ethyl)benzoate], the figure is 39.1 nM. Still for that read-out and setting: in the case of `O=C(NC[C@@H](c1ccc(F)cc1)c1nc2ccc(Cl)cc2o1)c1c(Cl)cc(-n2cnnc2)cc1Cl` [Example 43, (R)-2,6-Dichloro-N-(2-(6-chlorobenzo[d]oxazol-2-yl)-2-(4-fluorophenyl)ethyl)-4-(4H-1,2,4-triazol-4-yl)benzamide] it was 96.2 nM.

The assay is the same for the next values; noted with them: read-out: hFIXa IC50.
Turning to `Cc1cc2nc(C(CNC(=O)c3ccc(-n4cc(CCO)nn4)cc3Cl)c3ccccc3)[nH]c2cc1C` (centres unmarked) [Example 3], the IC50 stood at 21.9 nM. On the same count and under the same terms, in the case of `Cc1ncn(-c2cc(Cl)c(C(=O)NCC(c3ccccc3)c3nc4cc(C)c(C)cc4[nH]3)c(C(F)(F)F)c2)n1` (centres unmarked) [Example 4] it was 63.1 nM; in that of `Cc1cc2nc(C(CNC(=O)c3c(Cl)cc(-n4cnnc4)cc3C(F)(F)F)c3ccccc3)[nH]c2cc1C` (centres unmarked) [Example 5], 21.8 nM; in that of `Cc1ncn(-c2cc(Cl)c(C(=O)NCC(c3ccccc3)c3nc4cc(C)c(C)cc4[nH]3)c(Cl)c2)n1` (centres unmarked) [Example 6], 20.8 nM.

As for `Cc1cc2nc(C(CNC(=O)c3c(Cl)cc(-n4cnnc4)cc3Cl)c3ccccc3)[nH]c2cc1C` (centres unmarked) [Example 7], the IC50 is 3.64 nM. Same read-out and setting: as for `Cc1ncn(-c2cc(C)c(C(=O)NCC(c3ccccc3)c3nc4cc(C)c(C)cc4[nH]3)c(Cl)c2)n1` (centres unmarked) [Example 8], the figure is 6.99 nM; as for `COc1cc(-n2cnnc2)cc(Cl)c1C(=O)NCC(c1ccccc1)c1nc2cc(C)c(C)cc2[nH]1` (centres unmarked) [Example 9], 14.8 nM; as for `Cc1cc2nc(C(CNC(=O)c3c(F)cc(-n4cnnc4)cc3Cl)c3ccccc3)[nH]c2cc1C` (centres unmarked) [Example 10], 15.2 nM. The same measure, in the same setting: in the case of `Cc1cc2nc(C(CNC(=O)c3c(C)cc(-n4cnnc4)cc3Cl)c3ccccc3)[nH]c2cc1C` (centres unmarked) [Example 11] it was 8.05 nM. For `Cc1cc2nc([C@@H](CNC(=O)c3ccc(-n4cnnn4)cc3Cl)c3ccccc3)[nH]c2cc1C` [Example 12], the IC50 is 78.3 nM. Same read-out and setting: as for `COc1ncn(-c2ccc(C(=O)NCC(c3cccc(F)c3)c3nc4ccc(Cl)cc4[nH]3)c(Cl)c2)n1` (centres unmarked) [Example 13], the figure is 65.8 nM; as for `Cc1cc2nc(C(CNC(=O)c3c(Cl)cc(-n4cnnc4)cc3OC(F)(F)F)c3ccccc3)[nH]c2cc1C` (centres unmarked) [Example 14], 40 nM; as for `Cc1cc(Cl)cc2[nH]c(C(CNC(=O)c3ccc(-n4cnnc4C)cc3Cl)c3cccc(F)c3)nc12` (centres unmarked) [Example 15], 4.9 nM. Still for that read-out and setting: in the case of `Cc1cc2nc(C(CNC(=O)c3c(Cl)cc(-c4cncnc4)cc3Cl)c3ccccc3)[nH]c2cc1C` (centres unmarked) [Example 17] it was 18.1 nM; in that of `Cc1cc2nc(C(CNC(=O)c3c(Cl)cc(-c4cnn(CS(C)(=O)=O)c4)cc3Cl)c3ccccc3)[nH]c2cc1C` (centres unmarked) [Example 18], 403 nM; in that of `CCOC(=O)c1cc(-c2cc(Cl)c(C(=O)NCC(c3ccccc3)c3nc4cc(C)c(C)cc4[nH]3)c(Cl)c2)ccn1` (centres unmarked) [Example 19], 343 nM. With `Cc1cc2nc(C(CNC(=O)c3c(Cl)cc(-c4cnc5c(c4)CCC(=O)N5)cc3Cl)c3ccccc3)[nH]c2cc1C` (centres unmarked) [Example 20], the concentration for half-maximal inhibition (IC50) came to 276 nM. Still for that read-out and setting: in the case of `Cc1cc2nc(C(CNC(=O)c3c(Cl)cc(-c4cnc(OCCF)nc4)cc3Cl)c3ccccc3)[nH]c2cc1C` (centres unmarked) [Example 21] it was 378 nM.

As for `Cc1cc2nc(C(CNC(=O)c3c(Cl)cc(-c4cncc(C(C)(C)O)c4)cc3Cl)c3ccccc3)[nH]c2cc1C` (centres unmarked) [Example 22], the IC50 was 44.7 nM.

Take `COC(=O)c1ccc(-c2cc(Cl)c(C(=O)NCC(c3ccccc3)c3nc4cc(C)c(C)cc4[nH]3)c(Cl)c2)cn1` (centres unmarked) [Example 23]: the IC50 came out at 544 nM. Consider `Cc1cc2nc(C(CNC(=O)c3c(Cl)cc(-c4cnc5c(c4)CNC5=O)cc3Cl)c3ccccc3)[nH]c2cc1C` (centres unmarked) [Example 24], for which the IC50 is 141 nM. Same read-out and setting: in the case of `Cc1cc2nc(C(CNC(=O)c3c(Cl)cc(-c4cnc5ccccc5c4)cc3Cl)c3ccccc3)[nH]c2cc1C` (centres unmarked) [Example 25] it was 464 nM; in that of `Cc1cc2nc(C(CNC(=O)c3c(Cl)cc(-c4ccc(C(=O)O)nc4)cc3Cl)c3ccccc3)[nH]c2cc1C` (centres unmarked) [Example 26], 312 nM; in that of `Cc1cc2nc(C(CNC(=O)c3c(Cl)cc(-c4ccc5nncn5c4)cc3Cl)c3ccccc3)[nH]c2cc1C` (centres unmarked) [Example 27], 21 nM. In the case of `Cc1cc2nc(C(CNC(=O)c3c(Cl)cc(-c4ccn5ncnc5c4)cc3Cl)c3ccccc3)[nH]c2cc1C` (centres unmarked) [Example 28], the IC50 was 64.8 nM. As for `Cc1cc2nc(C(CNC(=O)c3c(Cl)cc(-c4cnc(C5CC5)nc4)cc3Cl)c3ccccc3)[nH]c2cc1C` (centres unmarked) [Example 29], the 50% inhibitory concentration (IC50) amounted to 654 nM. On the same count and under the same terms, as for `CCOC(=O)c1cc(-c2ccc(C(=O)NCC(c3ccccc3)c3nc4cc(C)c(C)cc4[nH]3)c(Cl)c2)ccn1` (centres unmarked) [Example 30], the figure is 247 nM. As to `Cc1cc2nc(C(CNC(=O)c3c(Cl)cc(-c4cnn(CCO)c4)cc3Cl)c3ccccc3)[nH]c2cc1C` (centres unmarked) [Example 31], the IC50 amounted to 65.3 nM. Still for that read-out and setting: as for `Cc1cc2nc(C(CNC(=O)c3c(Cl)cc(-c4cn[nH]c4)cc3Cl)c3ccccc3)[nH]c2cc1C` (centres unmarked) [Example 32], the figure is 503 nM. On the same count and under the same terms, as for `Cc1cc2nc(C(CNC(=O)c3ccc(-c4ccnc(C(=O)O)c4)cc3Cl)c3ccccc3)[nH]c2cc1C` (centres unmarked) [Example 33], the figure is 538 nM; as for `Cc1cc2nc(C(CNC(=O)c3c(Cl)cc(-c4cncc(CO)c4)cc3Cl)c3ccccc3)[nH]c2cc1C` (centres unmarked) [Example 34], 10.3 nM; as for `Cc1cc2nc(C(CNC(=O)c3c(Cl)cc(-c4ccc(CO)nc4)cc3Cl)c3ccccc3)[nH]c2cc1C` (centres unmarked) [Example 35], 42.7 nM. Consider `Cc1cc2nc(C(CNC(=O)c3c(Cl)cc(-c4ccnc(CO)c4)cc3Cl)c3ccccc3)[nH]c2cc1C` (centres unmarked) [Example 36], for which the IC50 worked out at 52.5 nM. For `Cc1ccc2nc(C(CNC(=O)c3ccc(-n4cnnc4)cc3Cl)c3ccccc3)[nH]c2c1` (centres unmarked) [Example 44], the half-maximal inhibitory concentration (IC50) amounted to 53.5 nM.

Take `Cc1cccc2[nH]c(C(CNC(=O)c3ccc(-n4cnnc4)cc3Cl)c3ccccc3)nc12` (centres unmarked) [Example 45]: the IC50 worked out at 622 nM.

The values are drawn from patent US10189819B2, “Factor IXa inhibitors” (MERCK SHARP & DOHME CORP., priority 2014, dated 2019).
